Assay: Stability of Racecadotril in Beta-HPCD at 40° C., pH 3.6/4.0/4.5 (HPLC)
Type: physicochemical
Experimental: Test Methods Sample Preparation: • 1. Pipet 1 mL of Racecadotril solution into a 100 mL volumetric flask (V.F.) • 2. Dilute to volume with the same buffer used in the solution preparation. • 3. Further dilute the sample solution to about 0.1 mg/mL if necessary. […] Parameters may be modified to optimize chromatography. • The assay of Racecadotril is determined by using the external standard injected. The degradation products levels are determined by % peak area relative to the Racecadotril peak. Chromatographic Conditions (European Pharmacopoeia Racecadotril Method): [table] Gradient Table: [table] Mobil Phase A: Phosphate buffer, pH 2.5 (Buffer prep: dissolve 1 g of potassium dihydrogen phosphate in water, adjust to pH 2.5 with phosphoric acid, dilute to 1000 mL with water) Mobil Phase B: 100% Acetonitrile Stability of Racecadotril in Beta-Hydroxypropyl-Cyclodextrin (Beta-HPCD) at 40° C.

[1] = Acetate, pH 3.6, 40° C., 1 week
[2] = Acetate, pH 3.6, 40° C., 2 week
[3] = Acetate, pH 3.6, 40° C., 3 week
[4] = Acetate, pH 3.6, 40° C., 4 week
[5] = Acetate, pH 3.6, 40° C., 6 week
[6] = Acetate, pH 3.6, 40° C., 8 week
[7] = Acetate, pH 3.6, 40° C., Initial
[8] = Acetate, pH 4.0, 40° C., 1 week
[9] = Acetate, pH 4.0, 40° C., 2 week
[10] = Acetate, pH 4.0, 40° C., 3 week
[11] = Acetate, pH 4.0, 40° C., 4 week
[12] = Acetate, pH 4.0, 40° C., 6 week
[13] = Acetate, pH 4.0, 40° C., 8 week
[14] = Acetate, pH 4.0, 40° C., Initial
[15] = Acetate, pH 4.5, 40° C., 1 week
[16] = Acetate, pH 4.5, 40° C., 2 week
[17] = Acetate, pH 4.5, 40° C., 3 week
[18] = Acetate, pH 4.5, 40° C., 4 week
[19] = Acetate, pH 4.5, 40° C., 6 week
[20] = Acetate, pH 4.5, 40° C., 8 week
[21] = Acetate, pH 4.5, 40° C., Initial
[22] = Citrate, pH 3.6, 40° C., 1 week
[23] = Citrate, pH 3.6, 40° C., 2 week
[24] = Citrate, pH 3.6, 40° C., 3 week
[25] = Citrate, pH 3.6, 40° C., 4 week
[26] = Citrate, pH 3.6, 40° C., 6 week
[27] = Citrate, pH 3.6, 40° C., 8 week
[28] = Citrate, pH 3.6, 40° C., Initial
[29] = Citrate, pH 4.0, 40° C., 1 week
[30] = Citrate, pH 4.0, 40° C., 2 week
[31] = Citrate, pH 4.0, 40° C., 3 week
[32] = Citrate, pH 4.0, 40° C., 4 week
[33] = Citrate, pH 4.0, 40° C., 6 week
[34] = Citrate, pH 4.0, 40° C., 8 week
[35] = Citrate, pH 4.0, 40° C., Initial
[36] = Citrate, pH 4.5, 40° C., 1 week
[37] = Citrate, pH 4.5, 40° C., 2 week
[38] = Citrate, pH 4.5, 40° C., 3 week
[39] = Citrate, pH 4.5, 40° C., 4 week
[40] = Citrate, pH 4.5, 40° C., 6 week
[41] = Citrate, pH 4.5, 40° C., 8 week
[42] = Citrate, pH 4.5, 40° C., Initial

With CC(=O)SCC(Cc1ccccc1)C(=O)NCC(=O)OCc1ccccc1 (racemic) [Racecadotril] the “Benz Alcohol” value [1] was 0.69%, the “Impurity C” value [1] was 0.93% and the “Impurity G” value [1] was 1.17%. The RAC [1] was 97.21%, the Thiorphan [1] was 0.00% and the “Benz Alcohol” value [2] was 1.40%. The “Impurity C” value [2] was 1.87%, the “Impurity G” value [2] was 1.74% and the RAC [2] was 94.88%. For the same compound, the Thiorphan [2] was 0.11%, the “Benz Alcohol” value [3] was 2.13% and the “Impurity C” value [3] was 2.78%. The “Impurity G” value [3] was 1.93%, the RAC [3] was 93.01% and the Thiorphan [3] was 0.14%. For the same compound, the “Benz Alcohol” value [4] was 2.84%, the “Impurity C” value [4] was 3.56% and the “Impurity G” value [4] was 3.00%. The RAC [4] was 90.15%, the Thiorphan [4] was 0.30% and the “Benz Alcohol” value [5] was 4.33%. For the same compound, the “Impurity C” value [5] was 5.17%, the “Impurity G” value [5] was 3.82% and the RAC [5] was 85.75%. For the same compound, the Thiorphan [5] was 0.57%, the “Benz Alcohol” value [6] was 5.78% and the “Impurity C” value [6] was 6.33%. For the same compound, the “Impurity G” value [6] was 5.28%, the RAC [6] was 80.68% and the Thiorphan [6] was 1.00%. For the same compound, the “Benz Alcohol” value [7] was 0.00%, the “Impurity C” value [7] was 0.00% and the “Impurity G” value [7] was 0.07%. For the same compound, the RAC [7] was 99.93%, the Thiorphan [7] was 0.00% and the “Benz Alcohol” value [8] was 0.70%. The “Impurity C” value [8] was 0.93%, the “Impurity G” value [8] was 1.36% and the RAC [8] was 97.01%. The Thiorphan [8] was 0.00%, the “Benz Alcohol” value [9] was 1.39% and the “Impurity C” value [9] was 1.82%. The “Impurity G” value [9] was 1.70%, the RAC [9] was 95.02% and the Thiorphan [9] was 0.07%. For the same compound, the “Benz Alcohol” value [10] was 2.09%, the “Impurity C” value [10] was 2.83% and the “Impurity G” value [10] was 2.66%. For the same compound, the RAC [10] was 92.23%, the Thiorphan [10] was 0.19% and the “Benz Alcohol” value [11] was 2.84%. The “Impurity C” value [11] was 3.52%, the “Impurity G” value [11] was 3.62% and the RAC [11] was 89.50%. For the same compound, the Thiorphan [11] was 0.38%, the “Benz Alcohol” value [12] was 4.28% and the “Impurity C” value [12] was 5.16%. The “Impurity G” value [12] was 5.67%, the RAC [12] was 83.98% and the Thiorphan [12] was 0.71%. For the same compound, the “Benz Alcohol” value [13] was 5.37%, the “Impurity C” value [13] was 6.20% and the “Impurity G” value [13] was 8.46%. For the same compound, the RAC [13] was 78.53%, the Thiorphan [13] was 1.19% and the “Benz Alcohol” value [14] was 0.00%. For the same compound, the “Impurity C” value [14] was 0.00%, the “Impurity G” value [14] was 0.00% and the RAC [14] was 100.00%. For the same compound, the Thiorphan [14] was 0.00%, the “Benz Alcohol” value [15] was 0.02% and the “Impurity C” value [15] was 0.21%. For the same compound, the “Impurity G” value [15] was 3.17%, the RAC [15] was 96.33% and the Thiorphan [15] was 0.02%. The “Benz Alcohol” value [16] was 0.40%, the “Impurity C” value [16] was 0.40% and the “Impurity G” value [16] was 6.50%. For the same compound, the RAC [16] was 92.61%, the Thiorphan [16] was 0.04% and the “Benz Alcohol” value [17] was 0.59%. For the same compound, the “Impurity C” value [17] was 0.58%, the “Impurity G” value [17] was 9.43% and the RAC [17] was 89.29%. For the same compound, the Thiorphan [17] was 0.06%, the “Benz Alcohol” value [18] was 0.79% and the “Impurity C” value [18] was 0.72%. For the same compound, the “Impurity G” value [18] was 11.84%, the RAC [18] was 86.50% and the Thiorphan [18] was 0.11%. For the same compound, the “Benz Alcohol” value [19] was 1.14%, the “Impurity C” value [19] was 1.04% and the “Impurity G” value [19] was 17.32%. For the same compound, the RAC [19] was 80.25%, the Thiorphan [19] was 0.20% and the “Benz Alcohol” value [20] was 1.51%. The “Impurity C” value [20] was 1.25%, the “Impurity G” value [20] was 21.73% and the RAC [20] was 75.06%. The Thiorphan [20] was 0.36%, the “Benz Alcohol” value [21] was 0.02% and the “Impurity C” value [21] was 0.02%. For the same compound, the “Impurity G” value [21] was 0.21%, the RAC [21] was 99.68% and the Thiorphan [21] was 0.01%. The “Benz Alcohol” value [22] was 0.79%, the “Impurity C” value [22] was 0.98% and the “Impurity G” value [22] was 1.78%. For the same compound, the RAC [22] was 96.45%, the Thiorphan [22] was 0.00% and the “Benz Alcohol” value [23] was 1.72%. For the same compound, the “Impurity C” value [23] was 2.30%, the “Impurity G” value [23] was 3.81% and the RAC [23] was 92.01%. For the same compound, the Thiorphan [23] was 0.13%, the “Benz Alcohol” value [24] was 2.59% and the “Impurity C” value [24] was 3.36%. For the same compound, the “Impurity G” value [24] was 5.52%, the RAC [24] was 88.22% and the Thiorphan [24] was 0.31%. The “Benz Alcohol” value [25] was 3.38%, the “Impurity C” value [25] was 4.23% and the “Impurity G” value [25] was 7.38%. For the same compound, the RAC [25] was 84.51%, the Thiorphan [25] was 0.47% and the “Benz Alcohol” value [26] was 5.09%. The “Impurity C” value [26] was 6.13%, the “Impurity G” value [26] was 9.72% and the RAC [26] was 77.91%. For the same compound, the Thiorphan [26] was 1.11%, the “Benz Alcohol” value [27] was 6.64% and the “Impurity C” value [27] was 7.54%. The “Impurity G” value [27] was 12.47%, the RAC [27] was 71.51% and the Thiorphan [27] was 1.80%. For the same compound, the “Benz Alcohol” value [28] was 0.00%, the “Impurity C” value [28] was 0.00% and the “Impurity G” value [28] was 0.09%. For the same compound, the RAC [28] was 99.91%, the Thiorphan [28] was 0.00% and the “Benz Alcohol” value [29] was 0.89%. The “Impurity C” value [29] was 1.23%, the “Impurity G” value [29] was 1.95% and the RAC [29] was 95.93%. The Thiorphan [29] was 0.00%, the “Benz Alcohol” value [30] was 1.41% and the “Impurity C” value [30] was 1.82%. For the same compound, the “Impurity G” value [30] was 3.47%, the RAC [30] was 93.19% and the Thiorphan [30] was 0.11%. The “Benz Alcohol” value [31] was 2.36%, the “Impurity C” value [31] was 2.82% and the “Impurity G” value [31] was 4.79%. For the same compound, the RAC [31] was 89.81%, the Thiorphan [31] was 0.21% and the “Benz Alcohol” value [32] was 2.79%. The “Impurity C” value [32] was 3.43%, the “Impurity G” value [32] was 6.57% and the RAC [32] was 86.78%. The Thiorphan [32] was 0.40%, the “Benz Alcohol” value [33] was 4.19% and the “Impurity C” value [33] was 4.98%. The “Impurity G” value [33] was 9.24%, the RAC [33] was 80.70% and the Thiorphan [33] was 0.85%. For the same compound, the “Benz Alcohol” value [34] was 5.54%, the “Impurity C” value [34] was 6.22% and the “Impurity G” value [34] was 11.26%. For the same compound, the RAC [34] was 75.46%, the Thiorphan [34] was 1.42% and the “Benz Alcohol” value [35] was 0.00%. For the same compound, the “Impurity C” value [35] was 0.00%, the “Impurity G” value [35] was 0.00% and the RAC [35] was 100.00%. The Thiorphan [35] was 0.00%, the “Benz Alcohol” value [36] was 0.22% and the “Impurity C” value [36] was 0.18%. The “Impurity G” value [36] was 3.15%, the RAC [36] was 96.44% and the Thiorphan [36] was 0.01%. The “Benz Alcohol” value [37] was 0.40%, the “Impurity C” value [37] was 0.36% and the “Impurity G” value [37] was 6.04%. For the same compound, the RAC [37] was 93.19%, the Thiorphan [37] was 0.03% and the “Benz Alcohol” value [38] was 0.59%. For the same compound, the “Impurity C” value [38] was 0.52%, the “Impurity G” value [38] was 8.66% and the RAC [38] was 90.20%. The Thiorphan [38] was 0.06%, the “Benz Alcohol” value [39] was 0.79% and the “Impurity C” value [39] was 0.62%. For the same compound, the “Impurity G” value [39] was 11.16%, the RAC [39] was 87.41% and the Thiorphan [39] was 0.10%. For the same compound, the “Benz Alcohol” value [40] was 1.14%, the “Impurity C” value [40] was 0.90% and the “Impurity G” value [40] was 15.86%. For the same compound, the RAC [40] was 82.05%, the Thiorphan [40] was 0.17% and the “Benz Alcohol” value [41] was 1.51%. The “Impurity C” value [41] was 1.11%, the “Impurity G” value [41] was 19.95% and the RAC [41] was 77.34%. The Thiorphan [41] was 0.29%, the “Benz Alcohol” value [42] was 0.02% and the “Impurity C” value [42] was 0.01%. The “Impurity G” value [42] was 0.19%, the RAC [42] was 99.71% and the Thiorphan [42] was 0.01%.

Source: patent publication US9114171B2, “Racecadotril liquid compositions” (McNeil-PPC, Inc., priority 2012, dated 2015)
